For one assay, the target named is hmGluR5a receptor (Homo sapiens (Human), UniProt P41594). Nature of the assay: Calcium Flux Assay. The assay is classed as cell-based. Conditions: hmGluR5a/L38-20 cells, glutamate-evoked [Ca2+]i. The procedure:
The activity of compounds was examined against the hmGluR5a receptor stably expressed in mouse fibroblast Ltk− cells (the hmGluR5a/L38-20 cell line). See generally Daggett et al., Neuropharmacology 34:871-886 (1995). Receptor activity was detected by changes in intracellular calcium ([Ca^2+]i) measured using the fluorescent calcium-sensitive dye, fura-2. hmGluR5a/L38-20 cells were plated onto 96-well plates, and loaded with 3 µM fura-2 for 1 h. Unincorporated dye was washed from the cells, and the cell plate was transferred to a custom-built 96-channel fluorimeter (SIBIA-SAIC, La Jolla, Calif.) which is integrated into a fully automated plate handling and liquid delivery system. Cells were excited at 350 and 385 nm with a xenon source combined with optical filters. Emitted light was collected from the sample through a dichroic mirror and a 510 nm interference filter and directed into a cooled CCD camera (Princeton Instruments). Image pairs were captured approximately every 1 s, and ratio images were generated after background subtraction. After a basal reading of 20 s, an EC80 concentration of glutamate ([…]) was added to the well, and the response evaluated for another 60 s. The glutamate-evoked increase in [Ca^2+]i in the presence of the screening compound was compared to the response of glutamate alone (the positive control).

The target of assay [1] is metabotropic glutamate receptor subtype 5 (Rattus norvegicus (Rat), UniProt P31424). Nature of the assay: [3H]-mGluR5 Antagonist Binding to Rodent Brain Membranes. On the procedure:
In accordance with Anderson J J, Rao S P, Rowe B, Giracello D R, Holtz G, Chapman D F, Tehrani L, Bradbury M J, Cosford N D, Varney M A, [^3H]Methoxymethyl-3-[(2-methyl-1,3-thiazol-4-yl)ethynyl]pyridine binding to metabotropic glutamate receptor subtype 5 in rodent brain: in vitro and in vivo characterization. J Pharmacol Exp Ther. 2002 December; 303 (3):1044-51, membranes were prepared (as described in Ransom R W and Stec N L (1988) Cooperative modulation of [^3H]MK-801 binding to the N-methyl-D-aspartate receptor-ion channel complex by L-glutamate, glycine, and polyamines. J Neurochem 51:830-836) using whole rat brain, or mGlu5^+/+ or mGlu5^−/− whole mouse brain.
Binding assays were performed as described in Schaffhauser H, Richards J G, Cartmell J, Chaboz S, Kemp J A, Klingelschmidt A, Messer J, Stadler H, Woltering T and Mutel V (1998) In vitro binding characteristics of a new selective group II metabotropic glutamate receptor radioligand, [^3H]LY354740, in rat brain. Mol Pharmacol 53:228-233) at room temperature with slight modifications. Briefly, membranes were thawed and washed once with assay buffer (50 mM HEPES, 2 mM MgCl2, pH 7.4), followed by centrifugation at 40,000×g for 20 min. The pellet was resuspended in assay buffer and briefly homogenized with a Polytron.
For protein linearity experiments, increasing concentrations of membrane protein were added to 96-well plates in triplicate and binding was initiated by addition of 20 nM [^3H]methoxymethyl-3-[(2-methyl-1,3-thiazol-4-yl)ethynyl]pyridine. The assay was incubated for 2 h and non-specific binding was determined using 10 μM MPEP. The binding was terminated by rapid filtration through glass-fiber filters (Unifilter-96 GF/B plate, Packard) using a 96-well plate Brandel cell harvester. Following addition of scintillant, the radioactivity was determined by liquid scintillation spectrometry. Protein measurements were performed by BioRad-DC Protein assay using bovine serum albumin as the standard.
Saturation binding experiments were performed in triplicate with increasing concentrations of [^3H]methoxymethyl-3-[(2-methyl-1,3-thiazol-4-yl)ethynyl]pyridine (1 pM to 100 nM). The time course of association was measured by the addition of 10 nM [^3H]methoxymethyl-3-[(2-methyl-1,3-thiazol-4-yl)ethynyl]pyridine to the membranes at different time points (0-240 min), followed by filtration. Dissociation was measured by the addition of 100 μM unlabeled methoxymethyl-3-[(2-methyl-1,3-thiazol-4-yl)ethynyl]pyridine at different time points to membranes previously incubated for 3 h with 10 nM [^3H]methoxymethyl-3-[(2-methyl-1,3-thiazol-4-yl)ethynyl]pyridine. For competition experiments, 100 μg membrane protein and 10 nM [^3H]methoxymethyl-3-[(2-methyl-1,3-thiazol-4-yl)ethynyl]pyridine was added to wells containing increasing concentration of the test compound in duplicate (methoxymethyl-3-[(2-methyl-1,3-thiazol-4-yl)ethynyl]pyridine or MPEP). [^3H]-3-Methoxy-5-(pyridin-2-ylethynyl)pyridine may also be used as the radioligand in the procedure described above. (See, Cosford, N. D. P.; Roppe, J.; Tehrani, L.; Seiders, T. J.; Schweiger, E. J. et al. [3H]-Methoxymethyl-MTEP and [3H]-methoxy-PEPy): Potent and selective radioligands for the Metabotropic Glutamate Subtype 5 (mGlu5) Receptor. Bioorg. Med. Chem. Lett. 2003, 13, 351-354.)

Each structure is given as a SMILES string. pIC50, pKi: −log10 of the molar value.

What is called pIC50 is the IC50 on a negative log10 scale, so that one unit is a factor of ten. The pKi is −log10 of the Ki, conventionally taken in molar units. Low readings indicate a high Ki, high ones a low Ki.

hmGluR5a receptor, sequence (P41594 other isoform, or with tags, fused parts or gaps): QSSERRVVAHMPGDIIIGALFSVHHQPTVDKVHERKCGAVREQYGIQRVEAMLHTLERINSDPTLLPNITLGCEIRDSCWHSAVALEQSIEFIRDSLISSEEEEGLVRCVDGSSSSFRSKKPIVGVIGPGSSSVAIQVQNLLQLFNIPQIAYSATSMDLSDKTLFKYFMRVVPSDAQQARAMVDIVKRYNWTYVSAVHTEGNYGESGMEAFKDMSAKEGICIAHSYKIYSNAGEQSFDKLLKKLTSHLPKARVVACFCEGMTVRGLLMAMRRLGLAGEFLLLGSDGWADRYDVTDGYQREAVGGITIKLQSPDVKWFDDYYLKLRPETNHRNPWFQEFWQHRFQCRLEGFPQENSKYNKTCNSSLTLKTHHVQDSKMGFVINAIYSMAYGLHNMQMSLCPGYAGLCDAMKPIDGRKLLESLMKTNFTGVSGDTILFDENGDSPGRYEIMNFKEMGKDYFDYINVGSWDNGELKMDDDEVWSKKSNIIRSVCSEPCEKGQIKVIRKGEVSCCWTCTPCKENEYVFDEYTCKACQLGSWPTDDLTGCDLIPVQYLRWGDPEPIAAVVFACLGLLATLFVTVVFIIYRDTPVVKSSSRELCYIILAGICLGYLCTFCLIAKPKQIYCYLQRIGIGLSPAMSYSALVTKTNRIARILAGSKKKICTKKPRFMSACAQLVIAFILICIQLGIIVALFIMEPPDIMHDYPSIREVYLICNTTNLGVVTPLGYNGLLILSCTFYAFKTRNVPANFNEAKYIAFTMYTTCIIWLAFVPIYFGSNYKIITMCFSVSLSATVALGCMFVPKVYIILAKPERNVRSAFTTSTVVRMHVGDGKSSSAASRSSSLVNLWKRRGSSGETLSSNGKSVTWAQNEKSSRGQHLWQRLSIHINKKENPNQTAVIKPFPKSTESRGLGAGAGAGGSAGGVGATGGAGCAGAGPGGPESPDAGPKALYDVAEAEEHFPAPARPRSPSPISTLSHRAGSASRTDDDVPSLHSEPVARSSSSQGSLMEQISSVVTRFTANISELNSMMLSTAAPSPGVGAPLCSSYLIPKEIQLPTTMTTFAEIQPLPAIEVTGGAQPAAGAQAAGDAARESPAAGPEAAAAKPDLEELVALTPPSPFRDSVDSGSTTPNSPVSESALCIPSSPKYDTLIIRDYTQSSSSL
metabotropic glutamate receptor subtype 5, sequence (P31424 21-1203): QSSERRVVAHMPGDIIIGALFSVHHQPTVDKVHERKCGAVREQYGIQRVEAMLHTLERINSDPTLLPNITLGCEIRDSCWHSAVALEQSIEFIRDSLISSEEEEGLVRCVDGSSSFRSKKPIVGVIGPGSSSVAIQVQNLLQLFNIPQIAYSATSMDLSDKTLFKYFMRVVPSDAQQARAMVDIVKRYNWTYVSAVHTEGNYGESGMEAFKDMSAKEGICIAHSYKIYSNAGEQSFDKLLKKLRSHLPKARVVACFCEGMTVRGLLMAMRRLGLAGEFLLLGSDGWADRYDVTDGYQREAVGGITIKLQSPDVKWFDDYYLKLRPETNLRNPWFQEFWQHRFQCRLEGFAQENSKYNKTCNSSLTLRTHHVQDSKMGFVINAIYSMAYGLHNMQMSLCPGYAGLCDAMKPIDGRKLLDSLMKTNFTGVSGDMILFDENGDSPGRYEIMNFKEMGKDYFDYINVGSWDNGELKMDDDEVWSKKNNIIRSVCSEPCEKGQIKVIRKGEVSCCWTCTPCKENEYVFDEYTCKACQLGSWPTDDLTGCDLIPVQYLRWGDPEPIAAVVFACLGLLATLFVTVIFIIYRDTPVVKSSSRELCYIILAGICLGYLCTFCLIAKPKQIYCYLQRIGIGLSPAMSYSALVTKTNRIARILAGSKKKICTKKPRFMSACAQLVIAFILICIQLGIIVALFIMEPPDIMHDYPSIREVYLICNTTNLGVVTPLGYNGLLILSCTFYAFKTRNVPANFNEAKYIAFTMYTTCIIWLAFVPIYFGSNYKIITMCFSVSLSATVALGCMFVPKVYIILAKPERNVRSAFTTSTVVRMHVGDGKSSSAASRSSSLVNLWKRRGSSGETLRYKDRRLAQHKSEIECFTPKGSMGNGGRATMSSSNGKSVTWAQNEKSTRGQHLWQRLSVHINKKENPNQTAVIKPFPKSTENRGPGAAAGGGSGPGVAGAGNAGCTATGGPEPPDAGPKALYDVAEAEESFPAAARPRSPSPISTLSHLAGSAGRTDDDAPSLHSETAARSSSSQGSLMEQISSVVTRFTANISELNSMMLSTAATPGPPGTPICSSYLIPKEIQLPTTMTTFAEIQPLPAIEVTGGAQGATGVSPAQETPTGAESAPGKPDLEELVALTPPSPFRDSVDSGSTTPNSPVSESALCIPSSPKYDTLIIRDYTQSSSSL

Turning to `COc1ccc(C#N)cc1-c1ccc(C#Cc2csc(C)n2)cn1` [Example 37], the pIC50 on hmGluR5a receptor is 7.85. The compound also showed a pKi in assay [1] of 8.00.
Regarding `Cc1ccc(C)c(-c2ccc(C#Cc3csc(C)n3)cn2)c1` [Example 38], the negative logarithm of the IC50 (pIC50) at hmGluR5a receptor was 7.89. The compound also gave a pKi in assay [1] of 8.10.
The corresponding values for `Cc1nc(C#Cc2ccc(-n3ccc4ccccc43)nc2)cs1` [Example 39] are 7.89 and 8.40.
The corresponding values for `Cc1nc(C#Cc2ccc(N3CCSCC3)nc2)cs1` [Example 40] are 7.92 and 8.05.
Turning to `Cc1nc(C#Cc2cncc(Nc3cccnc3)c2)cs1` [Example 41], at hmGluR5a receptor, the pIC50 was 7.96. Further, the pKi in assay [1] was 8.30.
For `Cc1nc(C#Cc2ccc(NC3CCC3)nc2)cs1` [Example 42], in that order: 7.96 and 7.77.
The corresponding values for `Cc1nc(C#Cc2cncc(-c3cccc(Cl)c3)c2)cs1` [Example 43] are 7.96 and 9.19.
On to `Cc1nc(C#Cc2ccc(-c3ccccc3CO)nc2)cs1` [Example 44], for which the pIC50 at hmGluR5a receptor was 7.96. For the same compound, in assay [1], the pKi is 8.70.
On to `Cc1nc(C#Cc2ccc(-c3ccc(F)c(F)c3)nc2)cs1` [Example 45], for which, on hmGluR5a receptor, the pIC50 was 7.96. Further, the negative-log Ki (pKi) in assay [1] was 8.15.
For `Cc1nc(C#Cc2ccc(-c3ccc(F)cc3)nc2)cs1` [Example 46], in that order: 7.96 and 8.70.
For `COc1ccc(C)cc1-c1ccc(C#Cc2csc(C)n2)cn1` [Example 47], in that order: 7.96 and 7.72.
The corresponding values for `Cc1nc(C#Cc2ccc(-c3cc(C#N)ccc3F)nc2)cs1` [Example 48] are 8.05 and 7.90.
In the case of `Cc1nc(C#Cc2ccc(-c3ccc(F)c(C)c3)nc2)cs1` [Example 49], at hmGluR5a receptor, the pIC50 was 8.05. Also, the pKi in assay [1] is 8.26.
For `Cc1nc(C#Cc2ccc(N(C)c3ccccn3)nc2)cs1` [Example 50], the pIC50 at hmGluR5a receptor was 8.05. Further, the pKi in assay [1] was 7.92.
For `COc1cccc(-c2ccc(C#Cc3csc(C)n3)cn2)c1F` [Example 51], in that order: 8.10 and 8.05.
For `Cc1cccc(-c2ccc(C#Cc3csc(C)n3)cn2)c1` [Example 52], in that order: 8.10 and 8.70.
On to `Cc1nc(C#Cc2ccc(N3C4CCC3CC4)nc2)cs1` [Example 53], for which the pIC50 at hmGluR5a receptor was 8.10. Also, in assay [1], the pKi was 8.10.
As to `Cc1ccc(F)c(-c2ccc(C#Cc3csc(C)n3)cn2)c1` [Example 54], on hmGluR5a receptor, the pIC50 was 8.10. The compound also showed a pKi in assay [1] of 8.82.
The corresponding values for `CCc1ccccc1-c1ccc(C#Cc2csc(C)n2)cn1` [Example 55] are 8.15 and 8.40.
For `Cc1nc(C#Cc2ccc(-c3cccc(CO)c3)nc2)cs1` [Example 56], in that order: 8.15 and 7.89.
For `Cc1nc(C#Cc2ccc(N3CCCCCC3)nc2)cs1` [Example 57], in that order: 8.15 and 8.12.
Consider `Cc1nc(C#Cc2ccc(N3C(C)CCC3C)nc2)cs1` (stereo not shown) [Example 58], for which, at hmGluR5a receptor, the pIC50 was 8.15. Further, the pKi in assay [1] was 8.82.
Turning to `CCC(C)(C)Nc1ccc(C#Cc2csc(C)n2)cn1` [Example 59], the pIC50 on hmGluR5a receptor was 8.22. The compound also showed a pKi in assay [1] of 8.40.
The corresponding values for `Cc1nc(C#Cc2ccc(-c3cccc(Cl)c3C)nc2)cs1` [Example 60] are 8.22 and 8.82.
The corresponding values for `Cc1nc(C#Cc2ccc(N3CCCC(F)C3)nc2)cs1` (stereo not shown) [Example 61] are 8.22 and 7.92.
The corresponding values for `CC[C@H](C)Nc1ccc(C#Cc2csc(C)n2)cn1` [Example 62] are 8.22 and 7.96.
For `Cc1nc(C#Cc2ccc(-c3cccc(C)c3C)nc2)cs1` [Example 63], the pIC50 on hmGluR5a receptor was 8.22. In assay [1], this compound had a pKi of 8.40.
The corresponding values for `CSc1ccccc1-c1ccc(C#Cc2csc(C)n2)cn1` [Example 64] are 8.22 and 9.10.
The corresponding values for `Cc1nc(C#Cc2cncc(-c3ccc(CO)cc3)c2)cs1` [Example 65] are 8.22 and 8.10.
The corresponding values for `CCC(CC)Nc1ccc(C#Cc2csc(C)n2)cn1` [Example 66] are 8.30 and 8.05.
As to `Cc1nc(C#Cc2cncc(CCc3ccccc3)c2)cs1` [Example 67], at hmGluR5a receptor, the pIC50 was 8.30. Further, in assay [1], the pKi is 8.15.
The corresponding values for `CC[C@@H](C)Nc1ccc(C#Cc2csc(C)n2)cn1` [Example 68] are 8.30 and 8.15.
For `Cc1nc(C#Cc2ccc(N3CCCC3)nc2)cs1` [Example 69], in that order: 8.30 and 7.85.
`Cc1nc(C#Cc2ccc(-c3cccc(C#N)c3)nc2)cs1` [Example 70]: the negative-log IC50 (pIC50) on hmGluR5a receptor is 8.30. Besides, the pKi in assay [1] is 8.30.
With `COCc1ccccc1-c1ccc(C#Cc2csc(C)n2)cn1` [Example 71], the pIC50 at hmGluR5a receptor is 8.30. Further, the pKi in assay [1] is 8.35.
On to `Cc1nc(C#Cc2ccc(NC(C)(C)C)nc2)cs1` [Example 72], for which, at hmGluR5a receptor, the pIC50 was 8.30. Moreover, the pKi in assay [1] was 8.15.
The corresponding values for `Cc1nc(C#Cc2ccc(C3CC4CCC3C4)nc2)cs1` (stereo not shown) [Example 73] are 8.40 and 8.70.
The corresponding values for `Cc1nc(C#Cc2ccc(N3CC4CCC3C4)nc2)cs1` (stereo not shown) [Example 74] are 8.40 and 8.12.
For `Cc1nc(C#Cc2ccc(C3CCCC3)nc2)cs1` [Example 75], the pIC50 at hmGluR5a receptor is 8.40. In assay [1], this compound showed a negative logarithm of the Ki (pKi) of 8.40.
As for `Cc1nc(C#Cc2cncc(C3CC3)c2)cs1` [Example 76], the pIC50 at hmGluR5a receptor is 8.46. Further, the pKi in assay [1] was 8.52.
For `Cc1nc(C#Cc2ccc(-c3cccc(C(F)(F)F)c3)nc2)cs1` [Example 77], in that order: 8.52 and 7.89.
As to `C=Cc1cncc(C#Cc2csc(C)n2)c1` [Example 78], the negative-log IC50 (pIC50) at hmGluR5a receptor was 8.52. For the same compound, in assay [1], the negative-log Ki (pKi) was 8.85.
`Cc1nc(C#Cc2ccc(Oc3ccccc3)nc2)cs1` [Example 79]: the pIC50 at hmGluR5a receptor is 8.52. In assay [1], this compound gave a pKi of 7.80.
`Cc1cncc(C#Cc2csc(C)n2)c1` [Example 80]: the pIC50 at hmGluR5a receptor was 8.52. The same compound had a negative-log Ki (pKi) in assay [1] of 8.52.
`Cc1nc(C#Cc2ccc(N3CCC(C)CC3)nc2)cs1` [Example 81]: the pIC50 at hmGluR5a receptor was 8.52. The compound further gave a pKi in assay [1] of 8.22.
The corresponding values for `Cc1nc(C#Cc2cncc(N(C)c3cccnc3)c2)cs1` [Example 82] are 8.52 and 8.70.
The corresponding values for `CCC(C)Sc1ccc(C#Cc2csc(C)n2)cn1` (stereo not shown) [Example 83] are 8.70 and 7.92.
